Columns and labels:
[1] = system: Listeria monocytogenes in HeLa cells; experiment: Intracellular Listeria monocytogenes infection of HeLa cells (CFU at 6 h p.i.); format: cell-based; conditions: 10 μM
Procedure: 4×10^5 HeLa cells were seeded in a 24-well tissue culture treated plate and incubated for 24 h at 37 °C under 5% CO2 atmosphere. On the next day, cells were incubated for 3 h with fresh DMEM supplemented with the PCM-0094889, PCM-0086166, PCM-0004846, PCM-0103431, PCM-0095494, PCM-0095293, PCM-0001349, and PCM-0095564 compounds at a final concentration of 10 μM. overnight cultures of Listeria monocytogenes that were grown statically at 37 °C were washed and resuspended in PBS. Cell infection at am MOI of 1:50 was conducted by adding 20 μl of Listeria suspension to each well, following by incubation at 37 °C under 5% CO2 atmosphere. 30 min p.i. the cells were washed with PBS and the medium was replaced with fresh medium supplemented with 10 μM of the tested compounds. One h p.i., gentamycin was added to each well at a final concentration of 50 μg/ml. At 6 h p.i., the cells were washed with PBS and lysed with 250 μl DDW at room temperature. The cell lysates were then diluted in PBS and plated on LB plates for CFU count. Intracellular Listeria infection was calculated as the number of intracellular bacteria recovered at 6 h p.i., divided by the infecting inoculum (CFUs). Listeria infection in the presence of the compounds is shown relative to the number of intracellular bacteria that were recovered from cells that were not treated with the compounds. The charts show the mean and standard error of the mean (SEM) of six biological repeats in two independent experiments, biological repeats.

[2] = system: caspase 3; experiment: Caspase 3 activity in HeLa cells (Multiplex Activity Fluorometric Assay Kit); format: cell-based, human; conditions: HeLa cells infected with S. Typhimurium
From the text: (§1) One of the possible mechanisms that could explain the activity of the compounds in inhibiting infection by different pathogens is inducing programed cell death in infected cells. To examine this experimentally, the present inventors have used Caspase-3, Caspase-8 and Caspase-9 Multiplex Activity Fluorometric Assay Kit (ab219915) to monitor caspase 3, caspase 8 and caspase 9 activity in HeLa cells infected with S. Typhimurium in the presence and absence of the compounds.

[3] = system: caspase 8; experiment: Caspase 8 activity in HeLa cells (Multiplex Activity Fluorometric Assay Kit); format: cell-based, human; conditions: HeLa cells infected with S. Typhimurium
From the text: as §1

Row | Compound | inhibition of Listeria monocytogenes infection of HeLa cells [1] | caspase 3 activity in infected cells [2] | Caspase 8 activity in infected HeLa cells [3]
1 | CCc1cc2c(cc1CC)CC(NC[C@@H](O)c1ccc(O)c3[nH]c(=O)ccc13)C2 [Compound 8] | able to actively inhibit | significantly higher activity | –
2 | O=C(Nc1ccno1)Nc1ccc(Cl)cc1Cl [Compound 7] | able to actively inhibit | significantly higher activity | significantly higher activity
3 | Cc1nc2c([nH]1)CCN(C(=O)c1ccc(NC(=O)c3ccccc3-c3ccccc3)cc1)c1ccccc1-2 [Compound 6] | – | significantly higher activity | –
4 | COc1ccccc1C1(CCNCc2ccc(N(C)C)cc2)CCOC(C)(C)C1 (stereo not shown) [Compound 4] | able to actively inhibit | significantly higher activity | –
5 | Cc1cc(Nc2ncnc3ccc(-c4ccc(CNCCS(C)(=O)=O)o4)cc23)ccc1Oc1ccn2ncnc2c1 [Compound 5] | able to actively inhibit | significantly higher activity | significantly higher activity
6 | CN1CCN(CCOc2cc(OC3CCOCC3)c3c(Nc4c(Cl)ccc5c4OCO5)ncnc3c2)CC1 [Compound 1] | able to actively inhibit | – | –
7 | CC(C)(C)NCC(O)COc1ccccc1C1CCCC1 (stereo not shown) [Compound 2] | – | significantly higher activity | –

Source: patent publication US20260355213A1, “TREATMENT OF INFECTIONS CAUSED BY INTRACELLULAR PATHOGENS” (Sheba Impact Ltd., priority 2023, published 2026)
